Results reported in the NIST ThermoML archive (doi:10.1016/j.tca.2014.05.028).
Numbers after ± are expanded uncertainties.

Assay: xn = mol fraction of the nth substance listed
Conditions: 101 kPa, Liquid; for viscosity: Falling or rolling sphere viscometry; for mass density: Vibrating tube method

CCC[N+]1(C)CCCC1.[Br-] [1-methyl-1-propylpyrrolidinium bromide] + O
Conditions	mass density [kg/m3]	viscosity [mPa·s]
298.15 K, x1 = 0.0315	1060.85 ± 0.4	1.604 ± 0.097
298.15 K, x1 = 0.0664	1111.9 ± 0.34	2.896 ± 0.17
298.15 K, x1 = 0.0983	1147.67 ± 0.3	5.311 ± 0.32
298.15 K, x1 = 0.1376	1178.4 ± 0.28	8.527 ± 0.52
298.15 K, x1 = 0.1685	1196.91 ± 0.28	12.41 ± 0.75
298.15 K, x1 = 0.2138	1217.36 ± 0.29	20.56 ± 1.2
298.15 K, x1 = 0.2382	1225.96 ± 0.3	26.01 ± 1.6
298.15 K, x1 = 0.27	1235.84 ± 0.32	35.47 ± 2.1
298.15 K, x1 = 0.3143	1245.39 ± 0.35	50.7 ± 3.1
298.15 K, x1 = 0.3535	1251.89 ± 0.38	69.94 ± 4.3
298.15 K, x1 = 1	1259.96 ± 1.4	–
303.15 K, x1 = 0.0315	1058.76 ± 0.4	1.412 ± 0.085
303.15 K, x1 = 0.0664	1109.17 ± 0.34	2.5 ± 0.15
303.15 K, x1 = 0.0983	1144.55 ± 0.29	4.504 ± 0.27
303.15 K, x1 = 0.1376	1175.05 ± 0.28	7.082 ± 0.43
303.15 K, x1 = 0.1685	1193.47 ± 0.28	10.2 ± 0.62
303.15 K, x1 = 0.2138	1213.89 ± 0.29	16.41 ± 0.99
303.15 K, x1 = 0.2382	1222.51 ± 0.3	20.59 ± 1.2
303.15 K, x1 = 0.27	1232.42 ± 0.32	27.62 ± 1.7
303.15 K, x1 = 0.3143	1242.02 ± 0.34	39.02 ± 2.4
303.15 K, x1 = 0.3535	1248.57 ± 0.37	53.25 ± 3.2
303.15 K, x1 = 1	1255.92 ± 1.4	–
308.15 K, x1 = 0.0315	1056.5 ± 0.4	1.216 ± 0.074
308.15 K, x1 = 0.0664	1106.34 ± 0.34	2.115 ± 0.13
308.15 K, x1 = 0.0983	1141.38 ± 0.29	3.451 ± 0.21
308.15 K, x1 = 0.1376	1171.66 ± 0.28	5.766 ± 0.35
308.15 K, x1 = 0.1685	1190.01 ± 0.28	8.237 ± 0.5
308.15 K, x1 = 0.2138	1210.41 ± 0.29	12.97 ± 0.78
308.15 K, x1 = 0.2382	1219.05 ± 0.3	16.15 ± 0.98
308.15 K, x1 = 0.27	1228.99 ± 0.31	21.43 ± 1.3
308.15 K, x1 = 0.3143	1238.64 ± 0.34	29.75 ± 1.8
308.15 K, x1 = 0.3535	1245.24 ± 0.37	40.25 ± 2.4
308.15 K, x1 = 1	1251.9 ± 1.4	–
313.15 K, x1 = 0.0315	1054.11 ± 0.39	1.077 ± 0.065
313.15 K, x1 = 0.0664	1103.44 ± 0.33	1.841 ± 0.11
313.15 K, x1 = 0.0983	1138.15 ± 0.29	2.994 ± 0.18
313.15 K, x1 = 0.1376	1168.23 ± 0.28	4.851 ± 0.29
313.15 K, x1 = 0.1685	1186.52 ± 0.27	6.89 ± 0.42
313.15 K, x1 = 0.2138	1206.9 ± 0.29	10.66 ± 0.65
313.15 K, x1 = 0.2382	1215.56 ± 0.3	13.14 ± 0.8
313.15 K, x1 = 0.27	1225.54 ± 0.31	17.24 ± 1
313.15 K, x1 = 0.3143	1235.25 ± 0.34	23.61 ± 1.4
313.15 K, x1 = 0.3535	1241.91 ± 0.37	31.53 ± 1.9
313.15 K, x1 = 1	1247.91 ± 1.4	–
318.15 K, x1 = 0.0315	1051.58 ± 0.39	0.972 ± 0.059
318.15 K, x1 = 0.0664	1100.44 ± 0.33	1.633 ± 0.099
318.15 K, x1 = 0.0983	1134.88 ± 0.29	2.652 ± 0.16
318.15 K, x1 = 0.1376	1164.78 ± 0.28	4.16 ± 0.25
318.15 K, x1 = 0.1685	1183 ± 0.27	5.833 ± 0.35
318.15 K, x1 = 0.2138	1203.37 ± 0.29	8.968 ± 0.54
318.15 K, x1 = 0.2382	1212.05 ± 0.3	10.98 ± 0.66
318.15 K, x1 = 0.27	1222.08 ± 0.31	14.27 ± 0.86
318.15 K, x1 = 0.3143	1231.85 ± 0.34	19.29 ± 1.2
318.15 K, x1 = 0.3535	1238.59 ± 0.37	25.42 ± 1.5
318.15 K, x1 = 1	1243.94 ± 1.4	–
323.15 K, x1 = 0.0315	1048.87 ± 0.39	0.865 ± 0.052
323.15 K, x1 = 0.0664	1097.37 ± 0.33	1.431 ± 0.087
323.15 K, x1 = 0.0983	1131.54 ± 0.29	2.372 ± 0.14
323.15 K, x1 = 0.1376	1161.28 ± 0.28	3.542 ± 0.21
323.15 K, x1 = 0.1685	1179.46 ± 0.27	4.937 ± 0.3
323.15 K, x1 = 0.2138	1199.83 ± 0.29	7.49 ± 0.45
323.15 K, x1 = 0.2382	1208.53 ± 0.3	9.11 ± 0.55
323.15 K, x1 = 0.27	1218.61 ± 0.31	11.75 ± 0.71
323.15 K, x1 = 0.3143	1228.44 ± 0.34	15.69 ± 0.95
323.15 K, x1 = 0.3535	1235.27 ± 0.37	20.44 ± 1.2
323.15 K, x1 = 1	1240 ± 1.4	–
328.15 K, x1 = 0.0315	1045.65 ± 0.39	0.771 ± 0.047
328.15 K, x1 = 0.0664	1094.2 ± 0.33	1.254 ± 0.076
328.15 K, x1 = 0.0983	1128.16 ± 0.29	2.085 ± 0.13
328.15 K, x1 = 0.1376	1157.76 ± 0.28	3.021 ± 0.18
328.15 K, x1 = 0.1685	1175.88 ± 0.27	4.183 ± 0.25
328.15 K, x1 = 0.2138	1196.26 ± 0.29	6.287 ± 0.38
328.15 K, x1 = 0.2382	1205 ± 0.29	7.586 ± 0.46
328.15 K, x1 = 0.27	1215.12 ± 0.31	9.732 ± 0.59
328.15 K, x1 = 0.3143	1225.02 ± 0.34	12.85 ± 0.78
328.15 K, x1 = 0.3535	1231.95 ± 0.36	16.54 ± 1
328.15 K, x1 = 1	1236.08 ± 1.4	–
333.15 K, x1 = 0.0315	1041.46 ± 0.38	0.695 ± 0.042
333.15 K, x1 = 0.0664	1090.9 ± 0.33	1.112 ± 0.067
333.15 K, x1 = 0.0983	1124.72 ± 0.29	1.841 ± 0.11
333.15 K, x1 = 0.1376	1154.2 ± 0.28	2.61 ± 0.16
333.15 K, x1 = 0.1685	1172.28 ± 0.27	3.597 ± 0.22
333.15 K, x1 = 0.2138	1192.68 ± 0.29	5.348 ± 0.32
333.15 K, x1 = 0.2382	1201.44 ± 0.29	6.425 ± 0.39
333.15 K, x1 = 0.27	1211.61 ± 0.31	8.189 ± 0.5
333.15 K, x1 = 0.3143	1221.59 ± 0.33	10.73 ± 0.65
333.15 K, x1 = 0.3535	1228.68 ± 0.36	13.7 ± 0.83
333.15 K, x1 = 1	1232.19 ± 1.4	–
338.15 K, x1 = 0.0315	1036.23 ± 0.38	0.64 ± 0.039
338.15 K, x1 = 0.0664	1087.31 ± 0.33	1.01 ± 0.061
338.15 K, x1 = 0.0983	1121.23 ± 0.29	1.651 ± 0.1
338.15 K, x1 = 0.1376	1150.6 ± 0.27	2.311 ± 0.14
338.15 K, x1 = 0.1685	1168.66 ± 0.27	3.174 ± 0.19
338.15 K, x1 = 0.2138	1189.07 ± 0.28	4.677 ± 0.28
338.15 K, x1 = 0.2382	1197.87 ± 0.29	5.592 ± 0.34
338.15 K, x1 = 0.27	1208.09 ± 0.31	7.083 ± 0.43
338.15 K, x1 = 0.3143	1218.14 ± 0.33	9.191 ± 0.56
338.15 K, x1 = 0.3535	1225.35 ± 0.36	11.65 ± 0.71
338.15 K, x1 = 1	1228.32 ± 1.3	–
343.15 K, x1 = 0.0315	1030.46 ± 0.38	0.574 ± 0.035
343.15 K, x1 = 0.0664	1083.03 ± 0.34	0.881 ± 0.053
343.15 K, x1 = 0.0983	1117.67 ± 0.29	1.326 ± 0.08
343.15 K, x1 = 0.1376	1146.98 ± 0.27	1.931 ± 0.12
343.15 K, x1 = 0.1685	1165.01 ± 0.27	2.763 ± 0.17
343.15 K, x1 = 0.2138	1185.45 ± 0.28	4.018 ± 0.24
343.15 K, x1 = 0.2382	1194.28 ± 0.29	4.784 ± 0.29
343.15 K, x1 = 0.27	1204.56 ± 0.31	6.011 ± 0.36
343.15 K, x1 = 0.3143	1214.68 ± 0.33	7.777 ± 0.47
343.15 K, x1 = 0.3535	1221.99 ± 0.36	9.762 ± 0.59
343.15 K, x1 = 1	1224.48 ± 1.3	–
